The results in this text go back to patent publication US10577336B2, “Morpholine and 1,4-oxazepane amides as somatostatin receptor subtype 4 (SSTR4) agonists” (Boehringer Ingelheim International GmbH, priority 2014, dated 2020).

By EC50 is commonly meant the concentration needed to bring the measured effect to its halfway point. What is called half-life is the time needed for the level to fall by half in the phase considered. Read a low half-life as rapid decline.

Data set [1] deals with human Somatostatin 4 receptor (hSSTR4) (Homo sapiens (Human), UniProt P31391). Kind of data set: cAMP assay with human somatostatin 4 receptor (inhibition of forskolin-stimulated cAMP, hSSTR4 expressing H4 cells). The class given is cell-based. The settings on record: read-out: SSTR4 agonism EC50. On the technique in general: Changes in cAMP serve as a functional read-out for many G protein-coupled receptors.

Data set [2] in a line: in vitro. As to conditions: human, microsomes, pH 7.6.
A short description of data set [3]: Metabolic stability in pooled human liver microsomes (half-life). As to conditions: 37° C., 1 μM test compound. For orientation: Liver microsomes are a subcellular fraction often used to study metabolism.

Sequence of human Somatostatin 4 receptor (hSSTR4) (P31391 whole entry): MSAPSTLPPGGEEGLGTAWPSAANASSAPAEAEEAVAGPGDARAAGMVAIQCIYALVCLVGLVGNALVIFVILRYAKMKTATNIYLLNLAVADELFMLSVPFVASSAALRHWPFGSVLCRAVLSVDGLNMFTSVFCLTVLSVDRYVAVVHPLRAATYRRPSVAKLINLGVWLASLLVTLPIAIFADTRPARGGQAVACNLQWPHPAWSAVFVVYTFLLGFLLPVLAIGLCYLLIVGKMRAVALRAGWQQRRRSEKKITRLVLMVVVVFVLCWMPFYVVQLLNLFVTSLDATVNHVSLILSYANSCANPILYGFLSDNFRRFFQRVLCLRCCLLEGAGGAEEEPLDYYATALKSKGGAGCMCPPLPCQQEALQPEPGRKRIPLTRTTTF

For the molecule `CC(C)(NC(=O)C1CNCCOC1)c1noc2c(Cl)cccc12` (single isomer, unassigned) [Example 73], the EC50 in data set [1] stood at 8.4 nM. In addition, the half-life at 1 μM in data set [2] was over 2.17 h.

As for `Cn1nc(C(C)(C)NC(=O)[C@@H]2CNCCO2)c2cccc(Cl)c21` [Example 79], the “Half-life t1/2” value in data set [3] is 1.67 h.

Take `CC(C)(NC(=O)C1CNCCOC1)c1noc2c(Cl)cccc12` (racemic) [Example 72]: the EC50 in data set [1] was 17.3 nM.

As for `Cc1cccn2c(C3(NC(=O)C4CNCCOC4)CC3)ncc12` (stereo not shown) [Example 5], the EC50 in data set [1] worked out at 20.4 nM.

For the molecule `CC(C)(NC(=O)[C@H]1CNCCO1)c1ccnc2ccccc12` [Example 8], in data set [1], the EC50 was 258 nM.

With `Cc1cccc2c(C(C)(C)NC(=O)[C@@H]3CNCCO3)nn(C)c12` [Example 83], the “Half-life t1/2” value in data set [3] was over 2.17 h.

Consider `COc1cccn2c(C(C)(C)NC(=O)[C@@H]3CNCCO3)ncc12` [Example 99], for which the EC50 in data set [1] is 43.4 nM.

`Cn1nc(C(C)(C)NC(=O)C2CNCCOC2)c2cccc(F)c21` (racemic) [Example 76]: in data set [1], the EC50 was 10 nM.

On to `Cc1nc(C(C)(C)NC(=O)[C@@H]2CNCCO2)n2cccc(F)c12` [Example 98], for which, in data set [1], the EC50 is 85.3 nM.
